Measured values from US10183944B2 (Asana Biosciences, LLC, priority 2011, dated 2019).
Structures can show the parent of a compound that is named as a salt.

Key:
[1] = target: Syk (356-635 amino acids) catalytic domain (Homo sapiens (Human), UniProt P43405); test: Inhibition of enzymatic Syk kinase activity (radiometric); assay type: biochemical; conditions: read-out: IC50 Syk
Excerpt: The objective of this assay was to examine by radiometric method the ability of compounds to inhibit Syk kinase enzyme. Syk is capable of phosphorylating substrates such as VAV, LAT, SLP-76, which in turn activate MAPK, PLCγ signaling pathways. […] This in vitro assay tests the ability of syk to phosphorylate a substrate peptide in the presence of ATP. By using a radio-labeled form of ATP, it is possible to measure the amount of phosphorylation of the substrate. The enzyme transfers a radio-labeled phosphate group from γ32 P labeled ATP to pG4T. Briefly the enzyme was incubated with substrate, radio-labeled & cold ATP and substrate in buffer with or without compounds. At the end of the reaction, the reaction mixture was transferred on to a Multiscreen filter plate and unreacted γ^32P ATP was washed off. The filter plate was dried and the radioactivity was measured on a scintillation counter to estimate the incorporated radioactivity on the substrate. The percent inhibition of activity of the enzyme was calculated by comparing counts in the presence and absence of compounds. […] 2.5 μL of 10% DMSO or compound in 10% DMSO was added to the wells in a 96 well V-bottom plate. Optimized concentration of in-house Syk enzyme (different batches of Syk (356-635) kinase domain) were used at optimized concentrations) ranging from 0.035 ng to 7.5 ng/reaction diluted in assay buffer was added to a total volume of 12.5 μL). Compound and protein were incubated for 30 minutes at room temperature on a plate shaker. Ten μL of a substrate mix containing 100 μM ATP (0.25 μL), γ-P^32-ATP (0.1 μL; 10 μCi/μL), pG4T (0.25 μL; 10 mg/mL) and 1× assay buffer (9.4 μL) was added to all the wells. Samples were incubated at 30° C. for 10 minutes after mixing. The reaction was stopped by the addition of 8N HCl (13 μL) containing 100 mM ATP. Thirty μL of sample was transferred to the center of a 2×2 cm^2 Whatman® P81 chromatography paper. After allowing the sample to dry for one minute, the assay squares were washed 3 times for 5 minutes each in ortho-phosphoric acid (0.5%) and once in acetone. Assay squares were dried for 15 minutes in a 30° C. oven and transferred to 96 well optiplate. Microscint-O® reagent (100 μL, Perkin Elmer) was added to each well, the plate was sealed with Topseal®-A microplates and incubated for 10 minutes at room temperature at very low speed on rocker and the plate was read in the Topcount® NXL instrument. The following calculations were made: Fold induction=radioactivity counts (uncorrected values) in positive control/substrate control.

[2] = target: JAK2 (Homo sapiens (Human), UniProt O60674); test: Inhibition of enzymatic JAK2 kinase activity (TR-FRET); assay type: biochemical; conditions: read-out: IC50 JAK
Excerpt: The objective of this assay was to screen compounds in a Time-resolved fluorescence resonance energy transfer (TR-FRET) Enzymatic assay method for their potential to inhibit JAK2 (Janus kinase) activity.
TR-FRET assays are homogeneous proximity assays where Eu-labeled antiphosphotyrosine antibody binds to the phosphorylated substrates labeled with Ulight fluorescence acceptor. Eu can transfer energy to Ulight accepter in the complex and the interaction of two dye-labeled binding partners is detected by the energy transfer between a donor and an acceptor dye, and the subsequent light emission by the acceptor dye. The intensity of the light emission is proportional to the level of Ulight peptide phosphorylation.
Two μL of 10% DMSO in blank, substrate control and positive control wells and 2 μL of test compound in test wells was added. Thirteen μL of assay buffer in blank and substrate control wells and 13 μL of Enzyme buffer mix in positive and test wells was added. The reaction mixture was incubated for 30 minutes at RT on a plate shaker. Ultra Light-pGT substrate (5 μL) [poly Glu-Tyr (4:1) labeled with U Light TM dye, a tyrosine kinase substrate] and ATP mix was added to all wells. The reaction plate was incubated for 60 minutes at RT on a plate shaker. The reaction was stopped by adding 40 mM EDTA (10 μL) in buffer. Ten μL of antibody was added to all the wells. The plate was read in a Wallac® 1420 Multilabel Counter Victor 3 instrument (Ex: 340 nm Em: 615 & 665 nm) The following calculations were made:
F@ 665 Value-Buffer blank
F@ 615 Value-Buffer blank
Ratio of F@665/F@615-Substrate Blank
% Activity=(Test Sample/Positive control)*100%
Inhibition=(100−% Activity)

JAK2, sequence (O60674 808-1132): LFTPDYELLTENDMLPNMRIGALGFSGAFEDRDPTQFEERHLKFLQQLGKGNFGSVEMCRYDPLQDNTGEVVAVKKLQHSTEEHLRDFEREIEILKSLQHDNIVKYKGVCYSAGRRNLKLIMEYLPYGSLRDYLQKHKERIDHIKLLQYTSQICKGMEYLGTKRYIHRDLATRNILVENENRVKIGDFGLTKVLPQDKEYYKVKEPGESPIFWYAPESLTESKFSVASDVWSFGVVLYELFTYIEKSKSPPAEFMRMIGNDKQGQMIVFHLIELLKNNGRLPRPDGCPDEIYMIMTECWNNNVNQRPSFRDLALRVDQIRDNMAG

| Structure (SMILES) | IC50 [1] [nM] | IC50 [2] [nM] |
| --- | --- | --- |
| N#CCC1CCN(c2nc(Nc3ccc(N4CCC(CCO)CC4)cc3)c3c(=O)[nH]ncc3n2)CC1 [Example 196, 2-(1-(4-((4-(4-(2-hydroxyethyl)piperidin-1-yl)phenyl)amino)-5-oxo-5,6-dihydropyrimido[4,5-d]pyridazin-2-yl)piperidin-4-yl)acetonitrile] | < 10 | < 10 |
| O=C(O)C[C@H]1CC[C@H](c2ccc(Nc3nc(N4CCCCCC4)nc4cn[nH]c(=O)c34)cc2)CC1 [Example 129, 2-((1R,4R)-4-(4-((2-(azepan-1-yl)-5-oxo-5,6-dihydropyrimido[4,5-d]pyridazin-4-yl)amino)phenyl)cyclohexyl)acetic acid] | < 10 | < 10 |
| N#CCC1CCN(c2nc(Nc3ccc(N4CCC(Cc5nn[nH]n5)CC4)cc3)c3c(=O)[nH]ncc3n2)CC1 [Example 246, 2-(1-(4-((4-(4-((2H-tetrazol-5-yl)methyl)piperidin-1-yl)phenyl)amino)-5-oxo-5,6-dihydropyrimido[4,5-d]pyridazin-2-yl)piperidin-4-yl)acetonitrile] | < 10 | < 10 |
| O=c1[nH]ncc2nc(N3CCCNCC3)nc(Nc3ccc(CN4CCNCC4)cc3)c12 [Example 59, 2-(1,4-diazepan-1-yl)-4-((4-(piperazin-1-ylmethyl)phenyl)amino)pyrimido[4,5-d]pyridazin-5(6H)-one dihydrochloride] | < 50 | > 100 |
| O=c1[nH]ncc2nc(N3CCCCCC3)nc(Nc3ccc(N4CCC(CCO)CC4)cc3)c12 [Example 195, 2-(azepan-1-yl)-4-((4-(4-(2-hydroxyethyl)piperidin-1-yl)phenyl)amino) pyrimido[4,5-d]pyridazin-5(6H)-one] | < 10 | < 10 |
| NC(=O)CC1CCN(c2ccc(Nc3nc(N4CCCCCC4)nc4cn[nH]c(=O)c34)cc2)CC1 [Example 105, 2-(1-(4-((2-(azepan-1-yl)-5-oxo-5,6-dihydropyrimido[4,5-d]pyridazin-4-yl)amino)phenyl)piperidin-4-yl)acetamide] | < 10 | < 10 |
| O=c1[nH]ncc2nc(N3CCOCC3)nc(Nc3ccc(CN4CCNCC4)cc3)c12 [Example 3, 2-morpholino-4-(4-(piperazin-1-ylmethyl)phenylamino)pyrimido[4,5-d]pyridazin-5(6H)-one hydrochloride] | > 100 | < 100 |
| O=c1[nH]ncc2nc(N3CCCCCC3)nc(Nc3ccc(N4CCN(CCCO)CC4)cc3)c12 [Example 260, 2-(azepan-1-yl)-4-((4-(4-(3-hydroxypropyl)piperazin-1-yl)phenyl)amino)pyrimido[4,5-d]pyridazin-5(6H)-one] | < 50 | < 50 |
| N#CCN1CCN(c2ccc(Nc3nc(N4CCCCCC4)nc4cn[nH]c(=O)c34)cc2)CC1 [Example 206, 2-(4-(4-((2-(azepan-1-yl)-5-oxo-5,6-dihydropyrimido[4,5-d]pyridazin-4-yl)amino)phenyl)piperazin-1-yl) acetonitrile] | < 50 | < 10 |
| N#CCC1CCN(c2nc(Nc3ccc(N4CCN(CC#N)CC4)cc3)c3c(=O)[nH]ncc3n2)CC1 [Example 207, 2-(1-(4-((4-(4-(cyanomethyl)piperazin-1-yl)phenyl)amino)-5-oxo-5,6-dihydropyrimido[4,5-d]pyridazin-2-yl)piperidin-4-yl)acetonitrile] | < 10 | < 10 |
| O=c1[nH]ncc2nc(N3CCCCCC3)nc(Nc3ccc(-c4nnn(CCO)n4)cc3)c12 [Example 222, 2-(azepan-1-yl)-4-((4-(2-(2-hydroxyethyl)-2H-tetrazol-5-yl)phenyl)amino) pyrimido[4,5-d]pyridazin-5(6H)-one] | < 100 | < 50 |
| COc1cccc(-c2nc(Nc3ccc(CN4CCNCC4)cc3)c3c(=O)[nH]ncc3n2)c1 [Example 31, 2-(3-methoxyphenyl)-4-(4-(piperazin-1-ylmethyl)phenylamino)pyrimido[4,5-d]pyridazin-5(6H)-one hydrochloride] | < 50 | > 100 |
| O=c1[nH]ncc2nc(N3CCCCCC3)nc(Nc3ccc(N4CCCN(CCO)CC4)cc3)c12 [Example 263, 2-(azepan-1-yl)-4-((4-(4-(2-hydroxyethyl)-1,4-diazepan-1-yl)phenyl)amino) pyrimido[4,5-d]pyridazin-5(6H)-one] | < 10 | < 10 |
| CN1CCN(Cc2ccc(Nc3nc(N4CCCCCC4)nc4cn[nH]c(=O)c34)cc2)CC1 [Example 85, 2-(azepan-1-yl)-4-((4-((4-methylpiperazin-1-yl)methyl)phenyl)amino)pyrimido[4,5-d]pyridazin-5(6H)-one] | < 50 | < 10 |
| O=c1[nH]ncc2nc(N3CCC4(CC3)CC4)nc(Nc3ccc(N4CCOCC4)cc3)c12 [Example 18, 4-(4-morpholinophenylamino)-2-(6-azaspiro[2.5]octan-6-yl)pyrimido[4,5-d]pyridazin-5(6H)-one] | > 100 | < 50 |
| O=C(O)C1CC12CCN(c1ccc(Nc3nc(N4CCCCCC4)nc4cn[nH]c(=O)c34)cc1F)CC2 (stereo not drawn) [Example 135, 6-(4-((2-(azepan-1-yl)-5-oxo-5,6-dihydropyrimido[4,5-d]pyridazin-4-yl)amino)-2-fluorophenyl)-6-azaspiro[2.5]octane-1-carboxylic acid] | < 10 | < 10 |
| N#CCC1CCN(c2nc(Nc3ccc4[nH]c(=O)[nH]c4c3)c3c(=O)[nH]ncc3n2)CC1 [Example 336, 2-(1-(5-oxo-4-((2-oxo-2,3-dihydro-1H-benzo[d]imidazol-5-yl)amino)-5,6-dihydropyrimido[4,5-d]pyridazin-2-yl)piperidin-4-yl)acetonitrile] | < 50 | < 50 |
| COc1cccc(-c2nc(Nc3ccc(N4CCC(CC#N)CC4)cc3)c3c(=O)[nH]ncc3n2)c1 [Example 163, 2-(1-(4-((2-(3-methoxyphenyl)-5-oxo-5,6-dihydropyrimido[4,5-d]pyridazin-4-yl)amino)phenyl)piperidin-4-yl)acetonitrile] | > 100 | – |
| COc1nc(Nc2ccc(CN3CCNCC3)cc2)c2c(=O)[nH]ncc2n1 [Example 61, 2-methoxy-4-((4-(piperazin-1-ylmethyl)phenyl)amino)pyrimido[4,5-d]pyridazin-5(6H)-one hydrochloride] | > 100 | – |
| N#CCC1CCN(c2nc(Nc3ccc(-c4nnn(CC(=O)O)n4)cc3)c3c(=O)[nH]ncc3n2)CC1 [Example 241, 2-(5-(4-((2-(4-(cyanomethyl)piperidin-1-yl)-5-oxo-5,6-dihydropyrimido[4,5-d]pyridazin-4-yl)amino)phenyl)-2H-tetrazol-2-yl)acetic acid] | > 100 | – |
| O=c1[nH]ncc2nc(N3CCOCC3)nc(Nc3ccc(OCCN4CCNCC4)cc3)c12 [Example 176, 2-morpholino-4-((4-(2-(piperazin-1-yl)ethoxy)phenyl)amino)pyrimido[4,5-d]pyridazin-5(6H)-one] | > 100 | – |
| O=C(O)CC1CCN(c2ccc(Nc3nc(C4CCCCCC4)nc4cn[nH]c(=O)c34)cc2)CC1 [Example 90, 2-(1-(4-((2-cycloheptyl-5-oxo-5,6-dihydropyrimido[4,5-d]pyridazin-4-yl)amino)phenyl)piperidin-4-yl)acetic acid] | < 100 | – |
